Reference: the NIST ThermoML archive (doi:10.1021/acs.jced.5b00934)

Conditions: Liquid, Vibrating tube method

CCC(C)O (centres undefined) [butan-2-ol]
Conditions | mass density [kg/m3]
333.15 K, 38040 kPa | 802.1
333.15 K, 39970 kPa | 803.4
333.15 K, 45112 kPa | 806.9
333.15 K, 47953 kPa | 808.7
333.15 K, 50048 kPa | 810.1
333.15 K, 52052 kPa | 811.3
333.15 K, 55007 kPa | 813.2
333.15 K, 62024 kPa | 817.4
333.15 K, 64970 kPa | 819.1
333.15 K, 66117 kPa | 819.8
333.16 K, 20151 kPa | 788.8
333.16 K, 42099 kPa | 804.9
333.16 K, 58002 kPa | 815
333.16 K, 60019 kPa | 816.2
338.15 K, 99 kPa | 765.5
338.15 K, 292 kPa | 765.7
338.15 K, 539 kPa | 766
338.15 K, 892 kPa | 766.4
338.15 K, 1007 kPa | 766.5
338.15 K, 3160 kPa | 768.7
338.15 K, 4911 kPa | 770.5
338.15 K, 10039 kPa | 775.5
338.15 K, 12002 kPa | 777.3
338.15 K, 15149 kPa | 780.1
338.15 K, 18051 kPa | 782.6
338.15 K, 19986 kPa | 784.2
338.15 K, 21999 kPa | 785.9
338.15 K, 32975 kPa | 794.4
338.15 K, 35130 kPa | 796
338.15 K, 40077 kPa | 799.5
338.15 K, 44943 kPa | 802.8
338.15 K, 48022 kPa | 804.9
338.15 K, 52052 kPa | 807.5
338.15 K, 55069 kPa | 809.5
338.15 K, 58033 kPa | 811.3
338.15 K, 60108 kPa | 812.6
338.15 K, 62047 kPa | 813.7
338.15 K, 65005 kPa | 815.5
338.15 K, 66128 kPa | 816.2
338.16 K, 2082 kPa | 767.6
338.16 K, 6964 kPa | 772.5
338.16 K, 8976 kPa | 774.5
338.16 K, 24990 kPa | 788.3
338.16 K, 27960 kPa | 790.7
338.16 K, 30065 kPa | 792.3
338.16 K, 31895 kPa | 793.7
338.16 K, 32982 kPa | 794.5
338.16 K, 33953 kPa | 795.1
338.16 K, 37933 kPa | 798
338.16 K, 41987 kPa | 800.8
338.16 K, 50029 kPa | 806.2
343.15 K, 90 kPa | 760.2
343.15 K, 290 kPa | 760.5
343.15 K, 469 kPa | 760.6
343.15 K, 910 kPa | 761.1
343.15 K, 1032 kPa | 761.3
343.15 K, 1994 kPa | 762.3
343.15 K, 4978 kPa | 765.5
343.15 K, 7040 kPa | 767.6
343.15 K, 9056 kPa | 769.6
343.15 K, 10137 kPa | 770.7
343.15 K, 12089 kPa | 772.5
343.15 K, 14318 kPa | 774.6
343.15 K, 15186 kPa | 775.4
343.15 K, 17997 kPa | 777.9
343.15 K, 19975 kPa | 779.7
343.15 K, 22054 kPa | 781.5
343.15 K, 25145 kPa | 784.1
343.15 K, 27969 kPa | 786.3
343.15 K, 30130 kPa | 788.1
343.15 K, 31848 kPa | 789.4
343.15 K, 32904 kPa | 790.1
343.15 K, 33014 kPa | 790.3
343.15 K, 33950 kPa | 790.9
343.15 K, 35008 kPa | 791.7
343.15 K, 38168 kPa | 794.1
343.15 K, 39957 kPa | 795.4
343.15 K, 42001 kPa | 796.8
343.15 K, 44975 kPa | 798.9
